Test results published in ChEMBL document CHEMBL1137071, “Phenyl thiazolyl urea and carbamate derivatives as new inhibitors of bacterial cell-wall biosynthesis” (Bioorg Med Chem Lett, 2004).
≈ marks a conversion by molar mass, not a printed value.

Columns and labels:
Type in all cases: functional
[1] = tested on: Staphylococcus aureus; experiment: Antimicrobial activity against Staphylococcus aureus GC 2216 (ATCC); Not active; 32-128
[2] = Inhibitory activity against MurB
[3] = tested on: Escherichia coli; experiment: Antimicrobial activity against Escherichia coli GC 4559; Not active; 32-128
[4] = tested on: Enterococcus faecalis; experiment: Antimicrobial activity against Enterococcus faecalis GC 2242 (VRE); Not active; 32-128
[5] = tested on: Streptococcus pneumoniae; experiment: Antimicrobial activity against Streptococcus pneumoniae GC1894 (PRSP) in the presence of 4% bovine serum albumin; Not active; 32-128
[6] = tested on: Staphylococcus aureus; experiment: Antimicrobial activity against Staphylococcus aureus GC 4543 (MSSA); Not active; 32-128
[7] = tested on: Escherichia coli; experiment: Antimicrobial activity against Escherichia coli GC 4560; Not active; 32-128
[8] = tested on: Enterococcus faecalis; experiment: Antimicrobial activity against Enterococcus faecalis GC 4555 (ATCC); Not active; 32-128
[9] = tested on: Streptococcus pneumoniae; experiment: Antimicrobial activity against Streptococcus pneumoniae GC1894 (PRSP); Not active; 32-128
[10] = tested on: Staphylococcus aureus; experiment: Antimicrobial activity against Staphylococcus aureus GC 1131 (MRSA); Not active; 32-128
[11] = tested on: Staphylococcus; experiment: Antimicrobial activity against MSCNS (methicillin-susceptible coagulase-negative staphylococci) GC 646; Not active; 32-128
[12] = tested on: Enterococcus faecalis; experiment: Antimicrobial activity against Enterococcus faecalis GC 4555 (ATCC); Not active; 16->128
[13] = tested on: Escherichia coli; experiment: Antimicrobial activity against Escherichia coli GC 4560; Not active; 16->128
[14] = tested on: Staphylococcus aureus; experiment: Antimicrobial activity against Staphylococcus aureus GC 2216 (ATCC); Not active; 16->128
[15] = tested on: Enterococcus faecalis; experiment: Antimicrobial activity against Enterococcus faecalis GC 2242 (VRE); Not active; 16->128
[16] = tested on: Staphylococcus aureus; experiment: Antimicrobial activity against Staphylococcus aureus GC 1131 (MRSA); Not active; 16->128
[17] = tested on: Streptococcus pneumoniae; experiment: Antimicrobial activity against Streptococcus pneumoniae GC1894 (PRSP); Not active; 16->128
[18] = tested on: Escherichia coli; experiment: Antimicrobial activity against Escherichia coli GC 4559; Not active; 16->128
[19] = tested on: Staphylococcus; experiment: Antimicrobial activity against MSCNS (methicillin-susceptible coagulase-negative staphylococci) GC 646; Not active; 16->128
[20] = tested on: Streptococcus pneumoniae; experiment: Antimicrobial activity against Streptococcus pneumoniae GC1894 (PRSP) in the presence of 4% bovine serum albumin; Not active; 16->128
[21] = tested on: Staphylococcus aureus; experiment: Antimicrobial activity against Staphylococcus aureus GC 4543 (MSSA); Not active; 16->128
[22] = tested on: Streptococcus pneumoniae; experiment: Antimicrobial activity against Streptococcus pneumoniae GC1894 (PRSP) in the presence of 4% bovine serum albumin; Not active; 1-4
[23] = tested on: Enterococcus faecalis; experiment: Antimicrobial activity against Enterococcus faecalis GC 4555 (ATCC); Not active; 1-4
[24] = tested on: Streptococcus pneumoniae; experiment: Antimicrobial activity against Streptococcus pneumoniae GC1894 (PRSP); Not active; 1-4
[25] = tested on: Staphylococcus; experiment: Antimicrobial activity against MSCNS (methicillin-susceptible coagulase-negative staphylococci) GC 646; Not active; 1-4
[26] = tested on: Staphylococcus aureus; experiment: Antimicrobial activity against Staphylococcus aureus GC 2216 (ATCC); Not active; 1-4
[27] = tested on: Staphylococcus aureus; experiment: Antimicrobial activity against Staphylococcus aureus GC 1131 (MRSA); Not active; 1-4
[28] = tested on: Enterococcus faecalis; experiment: Antimicrobial activity against Enterococcus faecalis GC 2242 (VRE); Not active; 1-4
[29] = tested on: Escherichia coli; experiment: Antimicrobial activity against Escherichia coli GC 4560; Not active; 1-4
[30] = tested on: Staphylococcus aureus; experiment: Antimicrobial activity against Staphylococcus aureus GC 4543 (MSSA); Not active; 1-4
[31] = tested on: Escherichia coli; experiment: Antimicrobial activity against Escherichia coli GC 4559; Not active; 1-4
[32] = tested on: Staphylococcus aureus; experiment: Antimicrobial activity against Staphylococcus aureus GC 4543 (MSSA); Not active; 0.5-128
[33] = tested on: Streptococcus pneumoniae; experiment: Antimicrobial activity against Streptococcus pneumoniae GC1894 (PRSP) in the presence of 4% bovine serum albumin; Not active; 0.5-128
[34] = tested on: Staphylococcus; experiment: Antimicrobial activity against MSCNS (methicillin-susceptible coagulase-negative staphylococci) GC 646; Not active; 0.5-128
[35] = tested on: Enterococcus faecalis; experiment: Antimicrobial activity against Enterococcus faecalis GC 2242 (VRE); Not active; 0.5-128
[36] = tested on: Staphylococcus aureus; experiment: Antimicrobial activity against Staphylococcus aureus GC 2216 (ATCC); Not active; 0.5-128
[37] = tested on: Streptococcus pneumoniae; experiment: Antimicrobial activity against Streptococcus pneumoniae GC1894 (PRSP); Not active; 0.5-128
[38] = tested on: Staphylococcus aureus; experiment: Antimicrobial activity against Staphylococcus aureus GC 1131 (MRSA); Not active; 0.5-128
[39] = tested on: Escherichia coli; experiment: Antimicrobial activity against Escherichia coli GC 4559; Not active
[40] = tested on: Enterococcus faecalis; experiment: Antimicrobial activity against Enterococcus faecalis GC 4555 (ATCC); Not active; 0.5-128
[41] = tested on: Escherichia coli; experiment: Antimicrobial activity against Escherichia coli GC 4560; Not active; 0.5-128
[42] = tested on: Enterococcus faecalis; experiment: Antimicrobial activity against Enterococcus faecalis GC 4555 (ATCC)
[43] = tested on: Streptococcus pneumoniae; experiment: Antimicrobial activity against Streptococcus pneumoniae GC1894 (PRSP) in the presence of 4% bovine serum albumin
[44] = tested on: Staphylococcus aureus; experiment: Antimicrobial activity against Staphylococcus aureus GC 2216 (ATCC)
[45] = Inhibitory activity against MurA from Escherichia coli
[46] = tested on: Escherichia coli; experiment: Antimicrobial activity against Escherichia coli GC 4559
[47] = Inhibitory activity against MurB from Staphylococcus aureus
[48] = tested on: Streptococcus pneumoniae; experiment: Antimicrobial activity against Streptococcus pneumoniae GC1894 (PRSP)
[49] = Antimicrobial activity against MSCNS (methicillin-susceptible coagulase-negative staphylococci) GC 646; settings: Staphylococcus
[50] = Inhibitory activity against MurB from Escherichia coli
[51] = tested on: Escherichia coli; experiment: Antimicrobial activity against Escherichia coli GC 4560
[52] = tested on: Staphylococcus aureus; experiment: Antimicrobial activity against Staphylococcus aureus GC 1131 (MRSA)
[53] = tested on: Enterococcus faecalis; experiment: Antimicrobial activity against Enterococcus faecalis GC 2242 (VRE)
[54] = tested on: Staphylococcus aureus; experiment: Antimicrobial activity against Staphylococcus aureus GC 4543 (MSSA)
[55] = tested on: Escherichia coli; experiment: Antimicrobial activity against Escherichia coli GC 4559; Not active; 0.5-8
[56] = tested on: Staphylococcus aureus; experiment: Antimicrobial activity against Staphylococcus aureus GC 1131 (MRSA); Not active; 0.5-8
[57] = tested on: Streptococcus pneumoniae; experiment: Antimicrobial activity against Streptococcus pneumoniae GC1894 (PRSP) in the presence of 4% bovine serum albumin; Not active; 0.5-8
[58] = tested on: Enterococcus faecalis; experiment: Antimicrobial activity against Enterococcus faecalis GC 4555 (ATCC); Not active; 0.5-8
[59] = tested on: Staphylococcus aureus; experiment: Antimicrobial activity against Staphylococcus aureus GC 2216 (ATCC); Not active; 0.5-8
[60] = tested on: Staphylococcus; experiment: Antimicrobial activity against MSCNS (methicillin-susceptible coagulase-negative staphylococci) GC 646; Not active; 0.5-8
[61] = tested on: Enterococcus faecalis; experiment: Antimicrobial activity against Enterococcus faecalis GC 2242 (VRE); Not active; 0.5-8
[62] = tested on: Escherichia coli; experiment: Antimicrobial activity against Escherichia coli GC 4560; Not active; 0.5-8
[63] = tested on: Staphylococcus aureus; experiment: Antimicrobial activity against Staphylococcus aureus GC 4543 (MSSA); Not active; 0.5-8
[64] = tested on: Streptococcus pneumoniae; experiment: Antimicrobial activity against Streptococcus pneumoniae GC1894 (PRSP); Not active; 0.5-8

O=C(Nc1ccc(Cl)c(Cl)c1)Nc1cccc2cccnc12
MIC [1]: > 128 µg/mL
IC50 [2]: > 25 µg/mL
MIC [3]: > 128 µg/mL
MIC [4]: > 128 µg/mL
MIC [5]: > 128 µg/mL
MIC [6]: > 128 µg/mL
MIC [7]: > 128 µg/mL
MIC [8]: > 128 µg/mL
MIC [9]: > 128 µg/mL
MIC [10]: > 128 µg/mL
MIC [11]: > 128 µg/mL

O=C(Nc1ccc(Cl)c(Cl)c1)Nc1nncs1
MIC [12]: > 128 µg/mL
MIC [13]: > 128 µg/mL
MIC [14]: > 128 µg/mL
MIC [15]: > 128 µg/mL
IC50 [2]: > 25 µg/mL
MIC [16]: > 128 µg/mL
MIC [17]: > 128 µg/mL
MIC [18]: > 128 µg/mL
MIC [19]: > 128 µg/mL
MIC [20]: > 128 µg/mL
MIC [21]: > 128 µg/mL

COC(=O)c1cnn(C)c1NC(=O)Nc1ccc(Cl)c(Cl)c1
MIC [22]: 4 µg/mL
MIC [23]: 4 µg/mL (≈ 11.7 µM)
IC50 [2]: 23 µg/mL (≈ 67 µM)
MIC [24]: 4 µg/mL (≈ 11.7 µM)
MIC [25]: 4 µg/mL (≈ 11.7 µM)
MIC [26]: 4 µg/mL (≈ 11.7 µM)
MIC [27]: 4 µg/mL (≈ 11.7 µM)
MIC [28]: 4 µg/mL (≈ 11.7 µM)
MIC [29]: 4 µg/mL (≈ 11.7 µM)
MIC [30]: 4 µg/mL (≈ 11.7 µM)
MIC [31]: 4 µg/mL (≈ 11.7 µM)

COC(=O)c1sccc1NC(=O)Nc1ccc(Cl)c(Cl)c1
MIC [32]: > 128 µg/mL
MIC [33]: > 128 µg/mL
IC50 [2]: 18 µg/mL (≈ 52.1 µM)
MIC [34]: > 128 µg/mL
MIC [35]: > 128 µg/mL
MIC [36]: > 128 µg/mL
MIC [37]: > 128 µg/mL
MIC [38]: > 128 µg/mL
MIC [39]: > 128 µg/mL
MIC [40]: > 128 µg/mL
MIC [41]: > 128 µg/mL

CC(C)(C)c1nc(NC(=O)Nc2cccc(C#N)c2)sc1C#N
MIC [42]: 16 µg/mL (≈ 49.2 µM)
MIC [43]: > 128 µg/mL
MIC [44]: > 128 µg/mL
IC50 [45]: > 25 µg/mL
MIC [46]: > 128 µg/mL
IC50 [47]: > 25 µg/mL
MIC [48]: 8 µg/mL (≈ 24.6 µM)
MIC [49]: > 128 µg/mL
IC50 [50]: > 25 µg/mL
MIC [51]: > 128 µg/mL
MIC [52]: > 128 µg/mL
MIC [53]: 8 µg/mL (≈ 24.6 µM)
MIC [54]: > 128 µg/mL

CC(C)(C)c1nc(NC(=O)Nc2cccnc2)sc1C#N
MIC [42]: > 128 µg/mL
MIC [43]: > 128 µg/mL
MIC [44]: > 128 µg/mL
IC50 [45]: 25 µg/mL (≈ 83 µM)
MIC [46]: > 128 µg/mL
IC50 [47]: 25 µg/mL (≈ 83 µM)
MIC [48]: > 128 µg/mL
MIC [49]: > 128 µg/mL
IC50 [50]: 25 µg/mL (≈ 83 µM)
MIC [51]: > 128 µg/mL
MIC [52]: > 128 µg/mL
MIC [53]: > 128 µg/mL
MIC [54]: > 128 µg/mL

O=C(Nc1ccc(Cl)c(Cl)c1)Nc1ccccn1
MIC [55]: 8 µg/mL (≈ 28.4 µM)
MIC [56]: 8 µg/mL (≈ 28.4 µM)
MIC [57]: 8 µg/mL
IC50 [2]: 17 µg/mL (≈ 60.3 µM)
MIC [58]: 8 µg/mL (≈ 28.4 µM)
MIC [59]: 8 µg/mL (≈ 28.4 µM)
MIC [60]: 8 µg/mL (≈ 28.4 µM)
MIC [61]: 8 µg/mL (≈ 28.4 µM)
MIC [62]: 8 µg/mL (≈ 28.4 µM)
MIC [63]: 8 µg/mL (≈ 28.4 µM)
MIC [64]: 8 µg/mL (≈ 28.4 µM)

N#Cc1sc(NC(=O)Nc2ccc(Cl)c(Cl)c2)nc1N1CCOCC1
MIC [42]: > 128 µg/mL
MIC [43]: > 128 µg/mL
MIC [44]: > 128 µg/mL
IC50 [45]: > 25 µg/mL
MIC [46]: > 128 µg/mL
IC50 [47]: 13 µg/mL (≈ 32.6 µM)
MIC [48]: > 128 µg/mL
MIC [49]: > 128 µg/mL
IC50 [50]: > 25 µg/mL
MIC [51]: > 128 µg/mL
MIC [52]: > 128 µg/mL
MIC [53]: 128 µg/mL (≈ 321 µM)
MIC [54]: > 128 µg/mL
